Data from US12465615B2, “Aqueous solutions containing purines and pyrimidines and uses thereof” (UCB BIOSCIENCES, INC., priority 2021, dated 2025).

Legend:
Assay type in all cases: physicochemical
[1] = Solubility of thymidine in aqueous liquids (300 mg in 3.0 mL, stirring, HPLC)
Excerpt: The solubility of thymidine was investigated wherein the dissolving liquid was water, pH 3 buffered water, and deoxycytidine containing water. The deoxycytidine employed in the solubility studies is referred to as Form A deoxycytidine, e.g. as described in U.S. Patent Publication 2021/0054014, which is incorporated herein by reference. Form A deoxycytidine is characterized by an X-ray diffraction pattern comprising peaks at 8.4, 12.9, 14.2, 16.8, 18.4, 19.4, 28.4, 30.0, and 30.6 degrees two-theta (2θ) (+/−0.2). The X-ray diffraction pattern can be recorded using CuKα1 radiation.
(§1) The procedure involved adding 300 mg of the thymidine to 3.0 mL of liquid and stirring. The three liquids were water, water wherein 50 mg/mL of deoxycytidine had already been dissolved, and water buffered at about pH 3. The pH 3 buffered water was created by adding 821 mg of anhydrous citric acid and 213 mg of sodium citrate dehydrate to a 100 mL volumetric flask and adding water to the 100 mL mark while dissolving the solids. The deoxycytidine solution was created by adding 500 mg of deoxycytidine to a 10 mL volumetric flask and filling the flask with water while dissolving the solids, yielding a pH of 8.23 and a deoxycytidine concentration of about 50 mg/mL.
(§2) The liquids were stirred and samples were withdrawn at 5 mins, 10 mins, and 24 hours. At each time period 0.7 mL of the suspension was removed and subjected to filtration through a 0.45 μm PTFE filter, and 0.3 mL of the suspension was removed and centrifuged at 10,000 rpm for 2 minutes. The filtrate from the filtration and the supernatant from the centrifugation were subjected to high performance liquid chromatography (HPLC) to determine the amount of dissolved thymidine.
Solubilities are reported in mg/mL.

[2] = pH of thymidine suspensions after stirring
Method: as §1, §2
The pH of the suspensions were also recorded.

[3] = Reconstitution of thymidine in water with differing amounts of deoxycytidine (HPLC content after 2 minutes of mixing); conditions: 6000 mg dT in 120 mL water
Method: The solubility of thymidine in combination with different amounts of deoxycytidine was determined using HPLC and reconstitution methods as described below.
Each 50 mg/mL stock solution was prepared by adding 120 mL of purified water to a 400 mL beaker, stirring the water at 650 rpm, and then adding the amounts of thymidine and/or deoxycytidine as listed in the Table 3 below for each sample to form mixtures.
Each mixture was stirred at 650 rpm for about 1 minute, after which the stirring was reduced to 150 rpm and maintained at 150 rpm for about 1 minute. After about 2 minutes total, the mixture was filtered through a 0.45 μm syringe filter to obtain filtered stock solutions for each sample.
0.9 mg/mL intermediate solutions of each of the above samples were prepared by adding 1.0 mL of the respective filtered stock solution into a 50 mL volumetric flask and diluting to volume with a diluent (e.g., water) and mixing.
0.09 mg/mL working solutions of each of the above samples were prepared by adding 1.0 mL of the respective intermediate solution into a 10 mL volumetric flask and diluting to volume with a diluent (e.g., water) and mixing. The resulting mixture was transferred to an HPLC vial.
Working solutions for each of the above samples were subjected to HPLC analysis utilizing the conditions and parameters below and in Table 4. The data collected from the HPLC analysis was then used to calculate percent content of thymidine dissolved for each sample after 2 minutes of mixing. • Mobile Phase A: Purified Water (degassed by sonication) • […] (degassed by sonication)
[formula] • ASample=Peak area of dC or dT in the sample solution • WStd=Weight of dC or dT reference material [mg] • PurityStd=Purity of dC or dT reference material in %/100 • VSample=Dilution of sample solution corrected with dC or dT [mL] • LCFW=Correction factor of Label Claim and fill weight/0.4825 (2000 mg/4145 mg) • AStd=Mean peak area of dC or dT in the 6 injections of Std1 at beginning • WSample=Weight of sample (mg) • VStd=Dilution of standard solution [mL]/50 mL • 100=Conversion in % Results
The dC Level is the percentage of the mass of dC relative to dT. The dT Content is the percentage of dT in solution within 2 minutes of stirring in the presence of the indicated dC level.

[4] = Water with 50 mg/mL of deoxycytidine, stirring 24 hrs
[5] = pH 3 buffered water, stirring 10 mins
[6] = pH 3 buffered water, stirring 24 hrs

Cc1cn([C@H]2C[C@H](O)[C@@H](CO)O2)c(=O)[nH]c1=O [thymidine]
thymidine solubility higher than the thymidine solubility in water ([1]; 50 mg/mL deoxycytidine solution versus water, 5 minutes): about 38% | Dissolved thymidine [1, 4]: 65.62 mg/mL | Dissolved thymidine ([1]; Water, stirring 24 hrs): 51.04 mg/mL | thymidine solubility higher than in water ([1]; deoxycytidine liquid versus water, 10 minutes): about 58% | Dissolved thymidine [1, 5]: 59.66 mg/mL | Dissolved thymidine [1, 6]: 52.04 mg/mL | pH of suspensions ([2]; Water with 50 mg/mL of deoxycytidine, stirring 5 mins): 7.3 | pH of suspensions ([2]; Water with 50 mg/mL of deoxycytidine, stirring 10 mins): 7.1 | pH of suspensions [2, 4]: 7.3 | pH of suspensions ([2]; Water, stirring 5 mins): 7.3 | pH of suspensions ([2]; Water, stirring 10 mins): 7.3 | pH of suspensions ([2]; Water, stirring 24 hrs): 7.3 | pH of suspensions ([2]; pH 3 buffered water, stirring 5 mins): 3.2 | pH of suspensions [2, 5]: 3.1 | pH of suspensions [2, 6]: 3.1 | dT Content (percentage of dT in solution within 2 minutes of stirring) ([3]; dC Level 0 % (mass of dC relative to dT)): 89.09% | dT Content (percentage of dT in solution within 2 minutes of stirring) ([3]; dC Level 10 %): 93.39% | dT Content (percentage of dT in solution within 2 minutes of stirring) ([3]; dC Level 20 %): 92.69% | dT Content (percentage of dT in solution within 2 minutes of stirring) ([3]; dC Level 40 %): 95.68% | dT Content (percentage of dT in solution within 2 minutes of stirring) ([3]; dC Level 80 %): 96.78% | dT Content (percentage of dT in solution within 2 minutes of stirring) ([3]; dC Level 100 %): 95.91%
